# In patent US20060069132A1, “Azolecarboxamide herbicides” (priority 2004, published 2006):
# Tests used:
# [1] = system: velvetleaf; assay: Test B pre-/postemergence herbicide test; format: in vivo, Abutilon theophrasti; conditions: 100 is complete control
# Procedure, shortened: (§1)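 Evaluation is visual, comparing treated with control plants on a scale where 0 means no effect and 100 means full control. Treatments were preemergence, or postemergence on seedlings 2–18 cm tall, and held 13–15 days in the greenhouse.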
# [2] = system: cocklebur; assay: Test B pre-/postemergence herbicide test; format: in vivo, Xanthium strumarium
# Procedure, shortened: (§2)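 Herbicidal effect was judged by eye on a 0–100 scale after plants stood 13 to 15 days in the greenhouse following pre- or postemergence treatment with surfactant-containing formulations.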
# [3] = system: morningglory; assay: Test A pre-/postemergence herbicide test; format: in vivo, Ipomoea spp.
# Procedure, shortened: (§3)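 Both application timings were run together: directed soil spray over freshly planted seeds in sandy loam, and runoff spray onto 2–10 cm seedlings. Evaluation after ~10 days in greenhouse used a 0–100 visual scale versus untreated controls.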
# [4] = system: redroot pigweed; assay: Test A pre-/postemergence herbicide test; format: in vivo, Amaranthus retroflexus
# Procedure, shortened: as §3
# [5] = system: large crabgrass; assay: Test B pre-/postemergence herbicide test; format: in vivo, Digitaria sanguinalis; conditions: for Crabgrass, Large plant response rating: postemergence
# Procedure, shortened: as §1
# [6] = system: lambsquarters; assay: Test B pre-/postemergence herbicide test; format: in vivo, Chenopodium album; conditions: for Lambsquarters plant response rating: postemergence
# Procedure, shortened: as §1
# [7] = system: barnyardgrass; assay: Test B pre-/postemergence herbicide test; format: in vivo, Echinochloa crus-galli; conditions: for Barnyardgrass plant response rating: postemergence
# Procedure, shortened: as §2
# [8] = system: giant foxtail; assay: Test B pre-/postemergence herbicide test; format: in vivo, Setaria faberi; conditions: for Foxtail, Giant plant response rating: postemergence
# Procedure, shortened: as §1
# [9] = system: small flower umbrella sedge; assay: Test B flooded paddy test; format: in vivo, Cyperus difformis; conditions: 1000 g ai/ha, scale 0 to 100 (0 no effect, 100 complete control)
# Procedure, shortened: (§4)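 Treated at 2-leaf (paddy) or 1–4-leaf, 2–18 cm (postemergence); greenhouse 13–15 d; visual score vs control, 0 none to 100 complete control; dash = not tested.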
# [10] = system: blackgrass; assay: Test B postemergence herbicide test; format: in vivo, Alopecurus myosuroides; conditions: postemergence
# Procedure, shortened: as §4
# [11] = system: Surinam grass; assay: Test B pre-/postemergence herbicide test; format: in vivo, Urochloa decumbens; conditions: for Surinam Grass plant response rating: postemergence
# Procedure, shortened: as §1
# [12] = system: barnyardgrass; assay: Test B flooded paddy test; format: in vivo, Echinochloa crus-galli; conditions: 1000 g ai/ha, scale 0 to 100 (0 no effect, 100 complete control)
# Procedure, shortened: as §4
# [13] = system: ducksalad; assay: Test B flooded paddy test; format: in vivo, Heteranthera limosa; conditions: 1000 g ai/ha, scale 0 to 100 (0 no effect, 100 complete control)
# Procedure, shortened: as §4
# [14] = system: morningglory; assay: Test B pre-/postemergence herbicide test; format: in vivo, Ipomoea coccinea; conditions: for Morningglory plant response rating: postemergence
# Procedure, shortened: as §2
# [15] = system: large crabgrass; assay: Test A pre-/postemergence herbicide test; format: in vivo, Digitaria sanguinalis
# Procedure, shortened: as §3
# [16] = system: rice; assay: Test B flooded paddy test; format: in vivo, Oryza sativa; conditions: 1000 g ai/ha, scale 0 to 100 (0 no effect, 100 complete control)
# Procedure, shortened: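 Each value is a visual 0–100 response rating taken against controls 13 to 15 days after treatment in the greenhouse. Plants received formulated chemical postemergence at the 1- to 4-leaf stage or, in flooded paddy, at the 2-leaf stage.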
# [17] = system: wild oat; assay: Test B postemergence herbicide test; format: in vivo, Avena fatua; conditions: postemergence
# Procedure, shortened: (§5)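 After treating 2-leaf paddy plants or 2–18 cm postemergence plants (1 to 4 leaves) with formulated chemical, researchers kept them in a greenhouse for 13–15 days. Effects were judged visually versus controls: 0 indicates none, 100 total control.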
# [18] = system: pigweed; assay: Test B pre-/postemergence herbicide test; format: in vivo, Amaranthus retroflexus; conditions: for Pigweed plant response rating: postemergence
# Procedure, shortened: as §1
# [19] = system: barnyardgrass; assay: Test A pre-/postemergence herbicide test; format: in vivo, Echinochloa crus-galli
# Procedure, shortened: as §3
# [20] = system: giant foxtail; assay: Test A pre-/postemergence herbicide test; format: in vivo, Setaria faberi
# Procedure, shortened: as §3
# [21] = system: corn; assay: Test B pre-/postemergence herbicide test; format: in vivo, Zea mays; conditions: for Corn plant response rating: postemergence
# Procedure, shortened: as §1
# [22] = system: velvetleaf; assay: Test A pre-/postemergence herbicide test; format: in vivo, Abutilon theophrasti
# Procedure, shortened: as §3
# [23] = system: wheat; assay: Test B postemergence herbicide test; format: in vivo, Triticum aestivum; parameters: key to Wheat plant response rating: 0 = no effect, 100 = complete control; conditions: postemergence
# Procedure, shortened: as §5
# [24] = 125 g ai/ha, 0 is no effect, 100 is complete control, preemergence
# [25] = 500 g ai/ha, visual rating, 0 = no effect, 100 = complete control, preemergence
# [26] = Postemergence, 500 g ai/ha, 0 to 100 scale, 0 no effect, 100 complete control
# [27] = Postemergence, 2000 g ai/ha, 0 to 100 scale, 0 no effect, 100 complete control
# [28] = Preemergence, 2000 g ai/ha, visual rating, 0 to 100 scale (0 no effect, 100 complete control)
# [29] = preemergence, 500 g ai/ha, visual injury, 0 to 100 scale (0 no effect, 100 complete control)
# [30] = 125 g ai/ha, visual rating, scale 0 (no effect) to 100 (complete control)
# [31] = 500 g ai/ha, scale 0 to 100, 0 is no effect, 100 is complete control
smiles,measurement,setting,value
CCNC(=O)c1cccc(NC(=O)c2nn(C3CCCC3)nc2CC)c1 [Compound 356],"Plant response rating (0 to 100 scale), Velvetleaf","[1]; 125 g ai/ha, 0 is no effect, preemergence",0
same,Velvetleaf plant response rating,"[1]; postemergence, 500 g ai/ha, scale 0 to 100, 0 is no effect",0
same,"Plant response rating (0 to 100 scale), Cocklebur",[2]; [24],0
same,"Plant response rating, Cocklebur",[2]; [25],20
same,Cocklebur plant response rating,"[2]; postemergence, 500 g ai/ha, scale 0 to 100, 0 is no effect, 100 is complete control",0
same,Morningglory plant response rating,[3]; [26],10
same,"Plant response rating, Morningglory",[3]; [27],20
same,Morningglory plant response rating,[3]; [28],15
same,Morningglory plant response rating,[3]; [29],5
same,Pigweed plant response rating,[4]; [26],65
same,"Plant response rating, Pigweed",[4]; [27],70
same,Pigweed plant response rating,[4]; [28],80
same,Pigweed plant response rating,[4]; [29],25
same,"Plant response rating (0 to 100 scale), Crabgrass, Large",[5]; [24],40
same,"Crabgrass, Large plant response rating",[5]; [30],10
same,"Plant response rating, Crabgrass, Large",[5]; [25],90
same,"Crabgrass, Large plant response rating",[5]; [31],30
same,"Plant response rating (0 to 100 scale), Lambsquarters",[6]; [24],40
same,Lambsquarters plant response rating,[6]; [30],10
same,"Plant response rating, Lambsquarters",[6]; [25],100
same,Lambsquarters plant response rating,[6]; [31],50
same,"Plant response rating (0 to 100 scale), Barnyardgrass",[7]; [24],60
same,Barnyardgrass plant response rating,[7]; [30],0
same,"Plant response rating, Barnyardgrass",[7]; [25],80
same,Barnyardgrass plant response rating,[7]; [31],0
same,"Plant response rating (0 to 100 scale), Foxtail, Giant",[8]; [24],10
same,"Foxtail, Giant plant response rating",[8]; [30],30
same,"Plant response rating, Foxtail, Giant",[8]; [25],80
same,"Foxtail, Giant plant response rating",[8]; [31],30
same,"Sedge, Umbrella plant response rating",[9],70
same,Blackgrass plant response rating,[10]; [30],0
same,Blackgrass plant response rating,[10]; [31],10
same,"Plant response rating (0 to 100 scale), Surinam Grass",[11]; [24],10
same,Surinam Grass plant response rating,[11]; [30],10
same,"Plant response rating, Surinam Grass",[11]; [25],60
same,Surinam Grass plant response rating,[11]; [31],20
same,Barnyardgrass plant response rating,[12],50
same,Ducksalad plant response rating,[13],60
same,"Plant response rating (0 to 100 scale), Morningglory",[14]; [24],0
same,Morningglory plant response rating,[14]; [30],0
same,"Plant response rating, Morningglory",[14]; [25],10
same,Morningglory plant response rating,[14]; [31],10
same,"Crabgrass, Large plant response rating",[15]; [26],10
same,"Plant response rating, Crabgrass, Large",[15]; [27],15
same,"Crabgrass, Large plant response rating",[15]; [28],20
same,"Crabgrass, Large plant response rating",[15]; [29],10
same,Rice plant response rating,[16],50
same,"Oat, Wild plant response rating",[17]; [30],0
same,"Oat, Wild plant response rating",[17]; [31],20
same,"Plant response rating (0 to 100 scale), Pigweed",[18]; [24],70
same,Pigweed plant response rating,[18]; [30],30
same,"Plant response rating, Pigweed",[18]; [25],100
same,Pigweed plant response rating,[18]; [31],70
same,Barnyardgrass plant response rating,[19]; [26],25
same,"Plant response rating, Barnyardgrass",[19]; [27],40
same,Barnyardgrass plant response rating,[19]; [28],45
same,Barnyardgrass plant response rating,[19]; [29],5
same,"Foxtail, Giant plant response rating",[20]; [26],10
same,"Plant response rating, Foxtail, Giant",[20]; [27],10
same,"Foxtail, Giant plant response rating",[20]; [28],45
same,"Foxtail, Giant plant response rating",[20]; [29],20
same,"Plant response rating (0 to 100 scale), Corn",[21]; [24],10
same,Corn plant response rating,[21]; [30],0
same,"Plant response rating, Corn",[21]; [25],50
same,Corn plant response rating,[21]; [31],0
same,Velvetleaf plant response rating,[22]; [26],10
same,"Plant response rating, Velvetleaf",[22]; [27],10
same,Velvetleaf plant response rating,[22]; [28],20
same,Velvetleaf plant response rating,[22]; [29],0
same,Wheat plant response rating,[23]; [30],0
same,Wheat plant response rating,[23]; [31],10
